Experimental data taken from BindingDB's records for doi:10.1016/j.bmc.2016.11.012 (China Pharmaceutical University, 2017).

Experiment: Inhibition of rabbit thrombin-induced platelet aggregation in rabbit platelet-rich plasma preincubated with rabbit liver microsomes for 4 hrs followed by addition to platelet

| Structure (SMILES) | IC50 [µM] |
| --- | --- |
| CC(C)(C)OC(=O)/N=C(\N)c1ccc(CC2NCCn3c2nc2cc(C4(C(=O)N5CCCC5)CCCC4)ccc23)cc1 (stereo unspecified) | 8.16 |
| Cc1nc(C)c(OC(=O)/N=C(\N)c2ccc(CC3NCCn4c3nc3cc(C5(C(=O)N6CCCC6)CCCC5)ccc34)cc2)nc1C (stereo unspecified) | 1.95 |
| CC(C)(C)OC(=O)/N=C(\N)c1ccc(CC2c3nc4cc(C5(C(=O)N6CCCC6)CCCC5)ccc4n3CCN2C(=O)OC(C)(C)C)cc1 (stereo unspecified) | > 1000 |
| CCOC(=O)/N=C(\N)c1ccc(CC2NCCn3c2nc2cc(C4(C(=O)N5CCCC5)CCCC4)ccc23)cc1 (stereo unspecified) | 88.2 |
| CC(C)COC(=O)/N=C(\N)c1ccc(CC2NCCn3c2nc2cc(C4(C(=O)N5CCCC5)CCCC4)ccc23)cc1 (stereo unspecified) | 164 |
| N/C(=N\C(=O)OCc1ccccc1)c1ccc(CC2c3nc4cc(C5(C(=O)N6CCCC6)CCCC5)ccc4n3CCN2C(=O)OCc2ccccc2)cc1 (stereo unspecified) | > 1000 |
| CCCCCCOC(=O)/N=C(\N)c1ccc(CC2NCCn3c2nc2cc(C4(C(=O)N5CCCC5)CCCC4)ccc23)cc1 (stereo unspecified) | 25.3 |
| N/C(=N\C(=O)OCc1ccccc1)c1ccc(CC2NCCn3c2nc2cc(C4(C(=O)N5CCCC5)CCCC4)ccc23)cc1 (stereo unspecified) | 91.2 |
| CC(C)COC(=O)/N=C(\N)c1ccc(CC2c3nc4cc(C5(C(=O)N6CCCC6)CCCC5)ccc4n3CCN2C(=O)OCC(C)C)cc1 (stereo unspecified) | > 1000 |
| CCCCCCOC(=O)/N=C(\N)c1ccc(CC2c3nc4cc(C5(C(=O)N6CCCC6)CCCC5)ccc4n3CCN2C(=O)OCCCCCC)cc1 (stereo unspecified) | 91.5 |
| CCCCCCOC(=O)N=C(N)c1ccc(NCc2nc3cc(C(=O)N(CCC(=O)OCC)c4ccccn4)ccc3n2C)cc1 [BIBR-1048] | 0.554 |
